Blank lines part the entries; values can stand above or below the compound they belong to.
What was measured:
[1] = target: T1, Chymase (Homo sapiens, UniProt P23946); test: In vitro inhibitory activity against human chymase; NI Indicates no inhibition at 10 uM
T1 sequence (P23946 whole entry): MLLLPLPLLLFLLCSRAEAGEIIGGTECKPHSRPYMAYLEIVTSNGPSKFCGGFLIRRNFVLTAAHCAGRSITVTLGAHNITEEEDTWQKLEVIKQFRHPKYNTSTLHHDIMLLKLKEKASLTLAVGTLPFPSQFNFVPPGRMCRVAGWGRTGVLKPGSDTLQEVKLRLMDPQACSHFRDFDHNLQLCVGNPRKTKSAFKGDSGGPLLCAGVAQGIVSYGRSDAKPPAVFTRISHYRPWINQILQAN

[2] = species on record: Rattus norvegicus; test: Percentage of compound present in rat plasma after incubation for 60 min at 37 degree C; assay type: functional, organism-based
[3] = In vitro inhibitory activity against human elastase
[4] = target: T2, Cathepsin G (Homo sapiens, UniProt P08311); test: In vitro inhibitory activity against human cathepsin G
T2 sequence (P08311 whole entry): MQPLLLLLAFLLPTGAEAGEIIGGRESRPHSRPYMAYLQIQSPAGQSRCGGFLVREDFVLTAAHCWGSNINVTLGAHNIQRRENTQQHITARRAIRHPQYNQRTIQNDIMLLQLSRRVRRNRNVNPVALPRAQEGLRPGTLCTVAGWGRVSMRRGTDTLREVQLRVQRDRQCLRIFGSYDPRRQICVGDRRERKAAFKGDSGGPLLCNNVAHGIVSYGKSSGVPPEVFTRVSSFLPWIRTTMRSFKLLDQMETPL

[5] = target: T1, Chymase; test: In vitro inhibitory activity against human chymase

SMILES: COC(=O)c1ccc(NS(=O)(=O)c2sc3ccc(F)cc3c2C)c(S(C)(=O)=O)c1
- Stability [2]: 74.3%
- IC50 [3]: > 10 µM
- IC50 [4]: > 10 µM

SMILES: Cc1c(S(=O)(=O)Nc2ccc(C=O)cc2S(C)(=O)=O)sc2ccc(F)cc12
- IC50 [5]: > 1 µM

SMILES: COCc1ccc(NS(=O)(=O)c2sc3ccc(F)cc3c2C)c(S(C)(=O)=O)c1
- IC50 [5]: 0.192 µM

SMILES: Cc1c(S(=O)(=O)Nc2ccc(C(=O)O)cc2S(C)(=O)=O)sc2ccc(F)cc12
- IC50 [5]: > 1 µM

SMILES: COC(=O)c1ccc(NS(=O)(=O)c2sc3ccc(C)cc3c2C)c(S(C)(=O)=O)c1
- IC50 [5]: 0.325 µM

SMILES: Cc1c(S(=O)(=O)Nc2ccc(C(N)=O)cc2S(C)(=O)=O)sc2ccc(F)cc12
- IC50 [5]: > 1 µM

SMILES: COC(=O)c1ccc(NS(=O)(=O)c2sc3ccc(Cl)cc3c2C)c(C(=O)OC)c1
- IC50 [1]: No inhibition

SMILES: CC(=O)c1ccc(NS(=O)(=O)c2sc3ccc(F)cc3c2C)c(S(C)(=O)=O)c1
- Stability [2]: 96.2%
- IC50 [3]: > 10 µM
- IC50 [4]: > 10 µM

SMILES: COC(=O)c1ccc(NS(=O)(=O)c2sc3ccc(Cl)cc3c2C)c(S(C)(=O)=O)c1C
- IC50 [5]: 0.594 µM

SMILES: Cc1c(S(=O)(=O)Nc2ccc(CO)cc2S(C)(=O)=O)sc2ccc(F)cc12
- IC50 [5]: 0.337 µM

The next lines start with results.

- IC50 [1]: No inhibition
SMILES: Cc1c(S(=O)(=O)Nc2ccc(C#N)cc2)sc2ccc(Cl)cc12

- IC50 [1]: No inhibition
SMILES: Cc1c(S(=O)(=O)Nc2ccc([N+](=O)[O-])cc2)sc2ccc(Cl)cc12

- IC50 [5]: 10.6 µM
SMILES: CCCS(=O)(=O)c1ccc(NS(=O)(=O)c2sc3ccc(Cl)cc3c2C)cc1

- IC50 [1]: No inhibition
SMILES: CCCSc1ccc(NS(=O)(=O)c2sc3ccc(Cl)cc3c2C)cc1

- IC50 [3]: > 10 µM
- IC50 [4]: > 10 µM
SMILES: COC(=O)c1ccc(NS(=O)(=O)c2sc3ccc(Cl)cc3c2C)c(S(C)(=O)=O)c1
- Stability [2]: 93.9%

From ChEMBL document CHEMBL1136443, “Structure-activity relationship of benzo[b]thiophene-2-sulfonamide derivatives as novel human chymase inhibitors” (Bioorg Med Chem Lett, 2003)
